# Experimental data: patent US20230123863A1, “A GLIA CELL AND NEURON CO-CULTURE SYSTEM AND METHOD” (National Yang-Ming University, priority 2020, published 2023)
# Assays:
# [1] = system: Primary rat cortical GN mix cultures; assay: NMDA-induced neurotoxicity in primary cortical glia-neuron (GN) mix culture, MAP2 and TUNEL staining; format: cell-based; settings: 9 DIV, 30 min pretreatment with 0.1 μM 14,15-EET or 10 μM AUDA, 24 h
# Method: Primary cortical NE cultures were prepared from embryonic day 17 SD fetal rats. The cultures were maintained in Neurobasal™ medium, and 9-10 days in vitro (DIV) culture was used for the study. Primary astrocyte cultures were prepared from SD rat pups at P1-2, with the purified astrocytes grown in 50% DMEM/50% Neurobasal™ medium containing heparin-binding EGF-like growth factor (HBEGF) or GNCM wherein GCM and NM are at a ratio of 1:1. Primary glia-neuron mix cultures were prepared from P0 rat brains. The harvested cerebral cortex was mechanically triturated in glia culture medium (GCM), comprising DMEM supplemented with 10% FBS. The mixture was stationed at room temperature for 1 minute, and the supernatant centrifuged at 1,500 rpm to obtain the cell pellet. The pellet was resuspended in GCM and seeded onto 24-well plates coated with poly-L-lysine (0.1 mg/mL). The culture medium was replaced with an embodiment of the GNCM medium of the present invention comprising a 1:1 mixture of GCM and B-27-containing Neurobasal™ 1 hour after the initial seeding.
# The day of cell plating was considered as 0 DIV, and 9-10 DIV cultures were used for the experiments.
# Primary rat cortical GN mix and NE cultures at 9 days in vitro were pretreated with 0.1 μM 14,15-EET, 10 μM 12-(3-adamantan-1-yl-ureido)-dodecanoic acid (AUDA), or vehicle for 30 min, and then treated with or without 14,15-epoxyeicosa-5(Z)-enoic acid (14,15-EEZE) (EZ) or N-methyl-D-aspartate (NMDA). Representative immunofluorescent images of MAP2 and TUNEL staining in GN mix and NE cultures were treated as indicated for 24 h. Total cell nuclei were counterstained with DAPI. Scale bar=50 μm.
# Neuron dendrites were marked with MAP2 and colored in red, cell nuclei were marked with DAPI and colored in blue, while cell death was marked with TUNEL and colored in green.
# Both MAP2^+ neurite density and TUNEL^+ cells were normalized by the total DAPI number in each quantified microscopic field.
# [2] = system: dorsal hippocampus of male SD adult rats; assay: kainic acid i.c.v. injection-induced hippocampal damage, NeuN, MAP2 and GLT-1 immunostaining; format: in vivo, rat
# Method: To validate the in vitro results, the effect of sEH inhibition on neuronal loss in the hippocampus after excitotoxic insult was investigated in vivo. First examined was the effect of CNS administration of AUDA on kainic acid (KA), an epileptic seizure-inducing substance, i.c.v. injection-induced hippocampal damage in male SD adult rats. The extent of neuronal damage in the dorsal hippocampus was examined 24 h after the KA injection by immunostaining with NeuN and MAP2 for neuronal nuclei and dendrites, respectively.
# Eight-week-old male SD rats were subjected to unilateral i.c.v. injection of saline, KA, or KA with the sEH inhibitor AUDA. Rat brains were harvested 24 h after the injection for immunohistochemistry.
# NeuN^+ cells of each hippocampal subregion were determined by counting the number of NeuN^+/DAPI^+ cells and then normalized with respective saline treatment group. MAP2 area was determined by the percentage of the immunoreactive area in each hippocampal region of interest and then normalized with the respective saline treatment group. […] Scale bar=100 μm. When compared with FIGS. 20-23, it can be seen that the results of in vivo trials were more similar to those of the GN culture than the NE culture.
# FIG. 27 is a quantitative analysis of images in FIG. 25. GLT-1 area was determined by the percentage of the immunoreactive area in each hippocampal region of interest and then normalized with the respective saline treatment group. Note that GLT-1 immunoreactivity was depleted in the stratum pyramidale (SP) and stratum lucidum (SL) layers of CA3 in the KA treatment group, and the effect was attenuated by the AUDA pretreatment.
# Oligodendrocytes = assay: excitotoxic NMDA treatment of oligodendrocytes in GN mix culture (RIP/NF200 staining); format: cell-based, mouse; settings: NM:GCM 1:1 medium, 5 μM NMDA at 14 DIV for 24 hour
# Method: Oligodendrocytes obtained from mouse primary neonatal brain cells cultivated using the GN culture compositions provided in table 4 were treated with 5 μM NMDA at 14 DIV for 24 hour.
# The cell nuclei are characterized by immunostaining shown in blue. […] Moreover, the response of oligodendrocytes to excitotoxic NMDA treatment can further mimic excitotoxicity-induced demyelination.
# [3] = biological target: T1, aryl hydrocarbon receptor (AHR) (Mus musculus, UniProt P30561); settings: WT mice, cited from earlier work
# T1 construct: the brains of adult mice were used to study the effect of aryl hydrocarbon receptor modulation; from tissue; host or cells: adult mouse brain, peri-infarct cortex (in vivo)
# T1 sequence (P30561 10-848): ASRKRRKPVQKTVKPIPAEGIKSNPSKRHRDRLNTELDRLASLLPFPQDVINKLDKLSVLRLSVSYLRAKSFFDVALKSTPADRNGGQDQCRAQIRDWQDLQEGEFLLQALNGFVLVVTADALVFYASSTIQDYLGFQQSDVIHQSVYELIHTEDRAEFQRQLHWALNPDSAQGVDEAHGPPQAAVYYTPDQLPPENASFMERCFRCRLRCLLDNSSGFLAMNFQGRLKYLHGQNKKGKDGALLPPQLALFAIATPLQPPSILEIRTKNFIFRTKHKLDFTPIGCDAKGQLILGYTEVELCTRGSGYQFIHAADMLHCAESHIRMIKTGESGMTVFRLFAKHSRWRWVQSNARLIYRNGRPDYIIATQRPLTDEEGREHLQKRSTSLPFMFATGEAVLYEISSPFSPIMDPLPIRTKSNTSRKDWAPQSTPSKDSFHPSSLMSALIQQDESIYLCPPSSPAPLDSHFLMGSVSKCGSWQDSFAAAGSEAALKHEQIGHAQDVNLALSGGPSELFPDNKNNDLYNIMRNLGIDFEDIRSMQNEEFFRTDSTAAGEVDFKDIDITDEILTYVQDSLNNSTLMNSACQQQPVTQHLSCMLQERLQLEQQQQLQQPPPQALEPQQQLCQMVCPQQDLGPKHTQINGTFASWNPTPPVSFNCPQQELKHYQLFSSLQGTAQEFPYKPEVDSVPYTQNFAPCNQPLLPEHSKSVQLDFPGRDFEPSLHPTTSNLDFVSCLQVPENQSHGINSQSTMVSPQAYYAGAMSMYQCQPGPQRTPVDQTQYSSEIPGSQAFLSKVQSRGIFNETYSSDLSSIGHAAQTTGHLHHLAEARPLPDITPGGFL
# [4] = system: rat cerebral cortex cells; assay: LPS neuroinflammation in cerebral cortex cells cultured in the media of Table 3; format: cell-based; settings: for percentages of MAP2 positive cells in the total population (neurons): 1 μg/mL LPS for 24 hours on day 13
# Description: The efficacies of simulating in vivo cell morphology, cell interactions and responses to stimuli in vitro using mGNCM of different ratios of modified neuron medium (mNM) and glia culture medium (GCM) were compared, 1:1:, 2:1 and GCM only groups, and the GCM only group comprising only GCM and 10% FBS as shown in Table 3 above.
# The effects of neuroinflammation simulation of rat cerebral cortex cells grown in vitro using the three embodiments of mGNCM of Table 3 were examined. Cells obtained from rat cerebral cortex were cultured in vitro for 13 days using the three culture media above, then treated with 1 μg/mL of lipopolysaccharides (LPS) for 24 hours on day 13 to trigger inflammation. Following LPS treatment, immunostaining was performed to observe cell population, morphology, and response to inflammatory stimulus.
# The immunostaining images of FIG. 5 show neuronal population and response to LPS stimulation, wherein CTL represents control groups (not subjected to LPS treatment) and LPS represents groups treated with LPS to induce neuroinflammation. The images show astrocyte cytoskeleton marked with GFAP and colored in red, neuron dendrites marked with MAP2 and colored in green, as well as cell nuclei marked with DAPI and colored in blue. FIGS. 5A1-5A3 and 5B1-5B3 show cells cultured with GCM only, FIGS. 5C1-5C3 and 5D1-5D3 show cells cultured with 1:1 mNM and GCM, while FIGS. 5E1-5E3 and 5F1-5F3 show cells cultured with 2:1 mNM and GCM. The GCM only group comprises fewer neurons, and the cells are smaller and unhealthier in both CTL and LPS treatment groups.
# mouse hippocampi = assay: intraperitoneal LPS injection, astrocyte and microglia plasticity in hippocampi; format: in vivo; settings: LPS i.p. for 7 days at 3 mg/kg body weight per injection, vs saline
# Method: To validate the results of in vitro LPS treatment of the present invention, LPS was injected intraperitoneally in mice for 7 days at 3 mg/kg body weight per injection and the astrocyte and microglia plasticity in mouse hippocampi examined. […] Astrocytes were marked with GFAP and colored in green, while cell nuclei were marked with DAPI and colored in blue.
# Microglia were marked with Iba-1 and colored in green, while cell nuclei were marked with DAPI and colored in blue.
# [5] = system: cells extracted from rat cerebral cortex; assay: LPS neuroinflammation and cell type population in glia cell and neuron co-culture in the media of Table 4; format: cell-based
# Method: To further examine the effects of various embodiments of mGNCM with different ratios of mNM and GCM of the present invention on cell type population and morphology of rat glia cells and neurons co-culture, six cell culture media were prepared to the specifications of Table 4.
# On postnatal day 0 (P0), cells extracted from rat cerebral cortex were inoculated in each of the cell culture media of Table 4. Following 14 days of in vitro cultivation, immunostaining was performed on the control groups (CTL) to aid in the observation of cell type ratios, specifically of neurons, astrocytes, and microglia, and oligodendrocytes as well as cell morphology. Cultures of the LPS groups (LPS) were subjected to inflammatory stimulation via 1 μg/mL LPS at 13 days in vitro. After another 24 hours, the LPS groups were subjected to immunostaining as well, for the observation of cell morphology and cell count.
# [6] = DGh and CA3, unilateral i.c.v. injection, 24 h after injection
# [7] = DGh and CA3, KA i.c.v. vs saline, 24 h
# [8] = TMF 5 mg/kg/day intraperitoneally, 48 h after MCAO
# [9] = all groups except for the GCM only group, 1 μg/mL LPS, 24 hours
molecule,measurement,setting,value
"CCCCCC1OC1CC=CCC=CCC=CCCCC(=O)O (stereo not shown) [14,15-EET, 14,15-epoxyeicosatrienoic acid]",NMDA-induced MAP2+ neurite reduction,[1],significantly attenuated
same,NMDA-induced cell death (TUNEL+ cells),[1],significantly attenuated
"O=C(O)CCCCCCCCCCCNC(=O)NC12CC3CC(CC(C3)C1)C2 [AUDA, 12-(3-adamantan-1-yl-ureido)-dodecanoic acid]",KA-induced MAP2+ dendrite damage,[2]; [6],significantly attenuated
same,KA-induced NeuN+ cell loss,[2]; [6],significantly attenuated
same,KA-induced depletion of GLT-1 immunoreactivity,"[2]; SP and SL layers of CA3, AUDA pretreatment",attenuated
same,NMDA-induced MAP2+ neurite reduction,[1],significantly attenuated
same,NMDA-induced cell death (TUNEL+ cells),[1],significantly attenuated
"C=C(C)[C@H]1CN[C@H](C(=O)O)[C@H]1CC(=O)O [KA, kainic acid]",MAP2+ dendrite area,[2]; [7],significantly reduced
same,NeuN+ neurons,[2]; [7],significantly reduced
same,GLT-1 immunoreactivity,"[2]; SP and SL layers of CA3, KA treatment group",depleted
"CN[C@H](CC(=O)O)C(=O)O [NMDA, N-methyl-D-aspartate]",oligodendrocyte process extension and arborization,Oligodendrocytes,disrupts
"COc1ccc(-c2cc(=O)c3cc(OC)ccc3o2)c(OC)c1 [TMF, 6,2′,4′-trimethoxyflavone]",GFAP-positive astrogliosis at the peri-infarct cortex after MCAO,[3]; [8],markedly decreased
same,Iba1-positive microgliosis at the peri-infarct cortex after MCAO,[3]; [8],markedly decreased
same,AHR immunoreactivity colocalized within Iba1-positive microglia and GFAP-positive astrocytes after MCAO,"[3]; TMF-treated vs vehicle-treated, peri-infarct cortex",markedly decreased
lipopolysaccharides [LPS],astrocyte hypertrophy (GFAP),"[4]; 1:1 group and 2:1 group, 1 μg/mL LPS for 24 hours",can be found
same,microglia cell density and cell size (Iba1),"[4]; 1:1 group, 1 μg/mL LPS for 24 hours",marked increase
same,percentages of MAP2 positive cells in the total population (neurons),[4]; 1:1 group,induces neuronal loss
same,percentages of MAP2 positive cells in the total population (neurons),[4]; GCM only and 2:1 groups,not affected in this way
same,astrocyte hypertrophy (GFAP),"[4]; GCM only group, 1 μg/mL LPS for 24 hours",not observed
same,astrocyte plasticity (GFAP) in hippocampal CA1 and CA3,mouse hippocampi,induced astrocyte hypertrophy and proliferation
same,microglia plasticity (Iba-1) in hippocampal CA1,mouse hippocampi,induced microglial hypertrophy and proliferation
same,"Iba1 positive area per cell, control vs LPS groups","[5]; 1:1, 2:1, and 4:1 groups, 1 μg/mL LPS, 24 hours",significant differences
same,percentage of neurons in total cells (MAP2-circled cells in total DAPI),"[5]; 2:1 mGNCM group, 1 μg/mL LPS, 24 hours",significant neuronal loss
same,microglia morphology (Iba1),[5]; [9],induces microglial hypertrophy (microgliosis)
same,percentage of neurons in total cells (MAP2-circled cells in total DAPI),[5]; [9],reduced
same,oligodendrocyte (OL) cell density,"[5]; different groups of GN mix cultures, 1 μg/ml LPS",does not affect
same,percentage of astrocytes in total cells (GFAP-circled cells in total DAPI),"[5]; groups of Table 4, 1 μg/mL LPS, 24 hours",does not cause significant proliferation or death of astrocytes
same,oligodendrocyte process shrinkage,"[5]; mNM:GCM 0.5:1 and 1:1 media, 1 μg/ml LPS",can be observed
same,percentage of microglia in total cells (Iba1 positive cells in total DAPI),"[5]; mNM:GCM 1:1 medium only, 1 μg/mL LPS, 24 hours",induces significant microglia proliferation
same,microglia number (Iba1 images),"[5]; mNM:GCM 2:1 co-culture system, 1 μg/mL LPS, 24 hours",induces an increase of microglia
same,astrocyte morphology (GFAP),"[5]; media of Table 4, 1 μg/mL LPS at 13 DIV, 24 hours",induces astrocyte hypertrophy and process arborization
